Results taken from patent US12077503B2, “Substituted cyclic amides and their use as herbicides” (FMC CORPORATION, priority 2015, dated 2024).

Experiments:
Type in all cases: in vivo
[1] = test system: ryegrass, Italian (Italian ryegrass, Lolium multiflorum); assay: Test A preemergence; conditions: Lolium multiflorum, pre-emergence, 240 h, 0 to 100 scale where 0 is no effect and 100 is complete control, read-out: Ryegrass, Italian plant response rating
In short: (§1)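 Seeded soil received test chemicals as a preemergence directed spray, and seedlings at one to two leaves, 2–10 cm tall, received them postemergence, in a non-phytotoxic, surfactant-containing solvent mixture. Pots were held in a greenhouse for approximately 10 d, then rated for injury from 0, no effect, to 100, complete control.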

[2] = test system: pigweed (Amaranthus retroflexus); assay: Test A preemergence; conditions: Amaranthus retroflexus, pre-emergence, 240 h, 0 to 100 scale where 0 is no effect and 100 is complete control, read-out: Pigweed plant response rating
[3] = test system: barnyardgrass (Echinochloa crus-galli); assay: Test A preemergence; conditions: Echinochloa crus-galli, pre-emergence, 240 h, 0 to 100 scale where 0 is no effect and 100 is complete control, read-out: Barnyardgrass plant response rating
In short: as §1

Kochia (Kochia scoparia) [4] = assay: Test A preemergence; conditions: Bassia scoparia, pre-emergence, 240 h, 0 to 100 scale where 0 is no effect and 100 is complete control, read-out: Kochia plant response rating
In short: as §1

[5] = test system: ragweed (common ragweed, Ambrosia elatior); assay: Test A preemergence; conditions: Ambrosia artemisiifolia, pre-emergence, 240 h, 0 to 100 scale where 0 is no effect and 100 is complete control, read-out: Ragweed plant response rating
In short: as §1

[6] = test system: giant foxtail (Setaria faberii); assay: Test A preemergence; conditions: Setaria faberi, pre-emergence, 240 h, 0 to 100 scale where 0 is no effect and 100 is complete control, read-out: Foxtail, Giant plant response rating
In short: as §1

rice (Oryra sativa) = assay: Test B flooded paddy test; conditions: Oryza sativa, 250 g ai/ha, Flood; 0 to 100 scale where 0 is no effect and 100 is complete control; read-out: Rice plant response rating
In short: (§2)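 2-leaf plants; pots flooded 3 cm over soil; cpd added to paddy water; depth held; greenhouse 13–15 d; visual rating vs controls, 0 = no effect, 100 = complete control.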

[7] = test system: sedge, umbrella (small-flower umbrella sedge, Cyperus difformis); assay: Test B flooded paddy test; conditions: Cyperus difformis, 250 g ai/ha, Flood; 0 to 100 scale where 0 is no effect and 100 is complete control; read-out: Sedge, Umbrella plant response rating
In short: as §2

[8] = test system: ducksalad (Heteranthera limosa); assay: Test B flooded paddy test; conditions: Heteranthera limosa, 250 g ai/ha, Flood; 0 to 100 scale where 0 is no effect and 100 is complete control; read-out: Ducksalad plant response rating
In short: as §2

[9] = test system: barnyardgrass (Echinochloa crus-galli); assay: Test B flooded paddy test; conditions: Echinochloa crus-galli, 250 g ai/ha, Flood; 0 to 100 scale where 0 is no effect and 100 is complete control; read-out: Barnyardgrass plant response rating
In short: as §2

[10] = test system: ryegrass, Italian (Italian ryegrass, Lolium multiflorum); assay: Test A postemergence; conditions: Lolium multiflorum, post-emergence, 240 h, read-out: Ryegrass, Italian plant response rating (0 to 100 scale)
In short: as §1

[11] = test system: pigweed (Amaranthus retroflexus); assay: Test A postemergence; conditions: Amaranthus retroflexus, post-emergence, 240 h, read-out: Pigweed plant response rating (0 to 100 scale)
In short: as §1

corn (Zea mays) = assay: Test A postemergence; conditions: Zea mays, post-emergence, 240 h, read-out: Corn plant response rating (0 to 100 scale)
In short: as §1

[12] = test system: blackgrass (Alopecurus myosuroides); assay: Test A postemergence; conditions: Alopecurus myosuroides, post-emergence, 240 h, read-out: Blackgrass plant response rating (0 to 100 scale)
In short: as §1

[13] = test system: barnyardgrass (Echinochloa crus-galli); assay: Test A postemergence; conditions: Echinochloa crus-galli, post-emergence, 240 h, read-out: Barnyardgrass plant response rating (0 to 100 scale)
In short: as §1

Kochia (Kochia scoparia) [14] = assay: Test A postemergence; conditions: Bassia scoparia, post-emergence, 240 h, read-out: Kochia plant response rating (0 to 100 scale)
In short: as §1

[15] = test system: Galium (catchweed bedstraw, Galium aparine); assay: Test A postemergence; conditions: Galium, post-emergence, 240 h, read-out: Galium plant response rating (0 to 100 scale)
In short: as §1

[16] = test system: wheat (Triticum aestivum); assay: Test A postemergence; conditions: Triticum aestivum, post-emergence, 240 h, Postemergence, 31 g ai/ha; 0 is no effect, 100 is complete control; read-out: Wheat plant response rating (0 to 100 scale)
In short: as §1

[17] = test system: ragweed (common ragweed, Ambrosia elatior); assay: Test A postemergence; conditions: Ambrosia artemisiifolia, post-emergence, 240 h, read-out: Ragweed plant response rating (0 to 100 scale)
In short: as §1

[18] = test system: giant foxtail (Setaria faberii); assay: Test A postemergence; conditions: Setaria faberi, post-emergence, 240 h, read-out: Foxtail, Giant plant response rating (0 to 100 scale)
In short: as §1

[19] = 125 g ai/ha, preemergence, visual injury rating, approximately 10 d
[20] = 125 g ai/ha, postemergence, visual injury vs untreated controls after approx. 10 d, 0 = no effect, 100 = complete control
[21] = Postemergence, 31 g ai/ha, 0 is no effect, 100 is complete control

Structure (SMILES): CN1C[C@H](c2ccc(F)c(Oc3ccccc3)c2)[C@@H](C(=O)Nc2cccc(F)c2F)C1=O [Compound 1259]
- pest or weed control at 31 g/ha ([1]; 31 g ai/ha, Preemergence): 0%
- pest or weed control at 125 g/ha [1, 19]: 30%
- pest or weed control at 31 g/ha ([2]; 31 g ai/ha, Preemergence): 30%
- pest or weed control at 125 g/ha [2, 19]: 30%
- pest or weed control at 31 g/ha ([3]; 31 g ai/ha, Preemergence): 0%
- pest or weed control at 125 g/ha [3, 19]: 60%
- pest or weed control at 31 g/ha (Kochia (Kochia scoparia) [4]; 31 g ai/ha, Preemergence): 0%
- pest or weed control at 125 g/ha (Kochia (Kochia scoparia) [4]; [19]): 0%
- pest or weed control at 31 g/ha ([5]; 31 g ai/ha, Preemergence): 0%
- pest or weed control at 125 g/ha [5, 19]: 0%
- pest or weed control at 31 g/ha ([6]; 31 g ai/ha, Preemergence): 40%
- pest or weed control at 125 g/ha [6, 19]: 90%
- pest or weed control at 250 g/ha (rice (Oryra sativa)): 0%
- pest or weed control at 250 g/ha [7]: 0%
- pest or weed control at 250 g/ha [8]: 0%
- pest or weed control at 250 g/ha [9]: 0%
- pest or weed control at 125 g/ha [10, 20]: 0%
- pest or weed control at 31 g/ha [10, 21]: 0%
- pest or weed control at 125 g/ha [11, 20]: 60%
- pest or weed control at 31 g/ha [11, 21]: 40%
- plant injury at 125 g/ha (corn (Zea mays); [20]): 70%
- plant injury at 31 g/ha (corn (Zea mays); [21]): 0%
- pest or weed control at 125 g/ha [12, 20]: 0%
- pest or weed control at 31 g/ha [12, 21]: 0%
- pest or weed control at 125 g/ha [13, 20]: 80%
- pest or weed control at 31 g/ha [13, 21]: 30%
- pest or weed control at 125 g/ha (Kochia (Kochia scoparia) [14]; [20]): 0%
- pest or weed control at 31 g/ha (Kochia (Kochia scoparia) [14]; [21]): 0%
- pest or weed control at 125 g/ha [15, 20]: 80%
- pest or weed control at 31 g/ha [15, 21]: 60%
- plant injury at 31 g/ha [16]: 0%
- pest or weed control at 125 g/ha [17, 20]: 0%
- pest or weed control at 31 g/ha [17, 21]: 0%
- pest or weed control at 125 g/ha [18, 20]: 70%
- pest or weed control at 31 g/ha [18, 21]: 30%
